What was measured:
[1] = tested on: SMMC-7721; assay: Cell cycle arrest in human SMMC7721 cells assessed as accumulation of cells at S phase at 4 umol/L after 72 hrs by propidium iodide staining-based flow cytometric analysis (reference value: 5.21%); format: functional
[2] = tested on: SMMC-7721; assay: Cell cycle arrest in human SMMC7721 cells assessed as accumulation of cells at G2/M phase at 0.125 umol/L after 72 hrs by propidium iodide staining-based flow cytometric analysis (reference value: 14.14%); format: functional
[3] = tested on: SMMC-7721; assay: Antiproliferative activity against human SMMC7721 cells after 72 hrs by CCK-8 assay; format: functional, cell-based; conditions: for IC50: SMMC-7721, 72 h
[4] = tested on: SMMC-7721; assay: Induction of apoptosis in human SMMC7721 cells after 72 hrs by Alexa Fluor 488 Annexin/propidium iodide staining-based flow cytometric analysis; format: functional, cell-based
[5] = tested on: SMMC-7721; assay: Cell cycle arrest in human SMMC7721 cells assessed as accumulation of cells at S phase at 1 umol/L after 72 hrs by propidium iodide staining-based flow cytometric analysis (reference value: 5.21%); format: functional
[6] = biological target: Histone deacetylase 2 (Homo sapiens, UniProt Q92769); assay: Inhibition of human recombinant HDAC2 using Fluor de Lys-Green as substrate preincubated for 5 mins followed by substrate addition and measured after 1 hr by fluorescence assay
Histone deacetylase 2, sequence (Q92769 whole entry): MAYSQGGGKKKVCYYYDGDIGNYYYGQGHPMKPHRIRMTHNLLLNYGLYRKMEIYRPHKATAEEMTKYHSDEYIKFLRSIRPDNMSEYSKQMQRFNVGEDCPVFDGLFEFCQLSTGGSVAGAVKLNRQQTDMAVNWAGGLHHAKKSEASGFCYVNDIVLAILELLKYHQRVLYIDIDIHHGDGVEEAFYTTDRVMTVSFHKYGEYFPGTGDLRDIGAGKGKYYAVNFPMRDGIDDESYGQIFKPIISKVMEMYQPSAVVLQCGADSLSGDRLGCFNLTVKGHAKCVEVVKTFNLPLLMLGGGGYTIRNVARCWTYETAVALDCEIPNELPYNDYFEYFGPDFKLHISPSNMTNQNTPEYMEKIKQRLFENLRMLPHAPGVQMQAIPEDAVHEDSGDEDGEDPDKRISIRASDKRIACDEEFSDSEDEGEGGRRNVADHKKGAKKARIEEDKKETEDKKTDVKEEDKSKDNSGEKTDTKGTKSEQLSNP

[7] = tested on: SMMC-7721; assay: Induction of apoptosis in human SMMC7721 cells assessed as late apoptotic cells at 0.125 umol/L after 72 hrs by Alexa Fluor 488 Annexin/propidium iodide staining-based flow cytometric analysis (reference value: 0.29%); format: functional
[8] = tested on: SMMC-7721; assay: Cell cycle arrest in human SMMC7721 cells assessed as accumulation of cells at G0/G1 phase at 4 umol/L after 72 hrs by propidium iodide staining-based flow cytometric analysis (reference value: 80.65%); format: functional
[9] = tested on: SMMC-7721; assay: Induction of apoptosis in human SMMC7721 cells assessed as early apoptotic cells at 0.125 umol/L after 72 hrs by Alexa Fluor 488 Annexin/propidium iodide staining-based flow cytometric analysis (reference value: 0.09%); format: functional
[10] = tested on: SMMC-7721; assay: Induction of apoptosis in human SMMC7721 cells assessed as necrotic cells at 1 umol/L after 72 hrs by Alexa Fluor 488 Annexin/propidium iodide staining-based flow cytometric analysis (reference value: 2.48%); format: functional
[11] = tested on: SMMC-7721; assay: Induction of apoptosis in human SMMC7721 cells assessed as necrotic cells at 0.125 umol/L after 72 hrs by Alexa Fluor 488 Annexin/propidium iodide staining-based flow cytometric analysis (reference value: 2.48%); format: functional
[12] = tested on: SMMC-7721; assay: Cell cycle arrest in human SMMC7721 cells assessed as accumulation of cells at G2/M phase at 1 umol/L after 72 hrs by propidium iodide staining-based flow cytometric analysis (reference value: 14.14%); format: functional
[13] = tested on: SMMC-7721; assay: Induction of apoptosis in human SMMC7721 cells assessed as viable cells at 0.125 umol/L after 72 hrs by Alexa Fluor 488 Annexin/propidium iodide staining-based flow cytometric analysis (reference value: 97.14%); format: functional; conditions: SMMC-7721, 72 h, read-out: Activity
[14] = tested on: A-375; assay: Antiproliferative activity against human A375 cells at 2 uM after 72 hrs by CCK-8 assay relative to control; format: functional; conditions: A-375, 72 h
[15] = tested on: A-375; assay: Antiproliferative activity against human A375 cells after 72 hrs by CCK-8 assay; format: functional, cell-based; conditions: for IC50: A-375, 72 h
[16] = tested on: HeLa; assay: Antiproliferative activity against human HeLa cells after 72 hrs by CCK-8 assay; format: functional, cell-based
[17] = tested on: SMMC-7721; assay: Induction of apoptosis in human SMMC7721 cells assessed as early apoptotic cells at 1 umol/L after 72 hrs by Alexa Fluor 488 Annexin/propidium iodide staining-based flow cytometric analysis (reference value: 0.09%); format: functional
[18] = tested on: SMMC-7721; assay: Cell cycle arrest in human SMMC7721 cells assessed as accumulation of cells at G0/G1 phase at 1 umol/L after 72 hrs by propidium iodide staining-based flow cytometric analysis (reference value: 80.65%); format: functional
[19] = tested on: SMMC-7721; assay: Induction of apoptosis in human SMMC7721 cells assessed as viable cells at 1 umol/L after 72 hrs by Alexa Fluor 488 Annexin/propidium iodide staining-based flow cytometric analysis (reference value: 97.14%); format: functional; conditions: SMMC-7721, 72 h, read-out: Activity
[20] = tested on: HeLa; assay: Antiproliferative activity against human HeLa cells at 2 uM after 72 hrs by CCK-8 assay relative to control; format: functional
[21] = tested on: SMMC-7721; assay: Cell cycle arrest in human SMMC7721 cells assessed as accumulation of cells at G2/M phase at 4 umol/L after 72 hrs by propidium iodide staining-based flow cytometric analysis (reference value: 14.14%); format: functional
[22] = tested on: SMMC-7721; assay: Induction of apoptosis in human SMMC7721 cells assessed as necrotic cells at 4 umol/L after 72 hrs by Alexa Fluor 488 Annexin/propidium iodide staining-based flow cytometric analysis (reference value: 2.48%); format: functional
[23] = tested on: SMMC-7721; assay: Induction of apoptosis in human SMMC7721 cells assessed as late apoptotic cells at 4 umol/L after 72 hrs by Alexa Fluor 488 Annexin/propidium iodide staining-based flow cytometric analysis (reference value: 0.29%); format: functional
[24] = tested on: NCI-H1299; assay: Antiproliferative activity against human NCI-H1299 cells after 72 hrs by CCK-8 assay; format: functional, cell-based; conditions: for IC50: NCI-H1299, 72 h
[25] = biological target: Histone deacetylase 1 (Homo sapiens, UniProt Q13547); assay: Inhibition of human recombinant HDAC1 using Fluor de Lys-Green as substrate preincubated for 5 mins followed by substrate addition and measured after 1 hr by fluorescence assay
Histone deacetylase 1, sequence (Q13547 whole entry): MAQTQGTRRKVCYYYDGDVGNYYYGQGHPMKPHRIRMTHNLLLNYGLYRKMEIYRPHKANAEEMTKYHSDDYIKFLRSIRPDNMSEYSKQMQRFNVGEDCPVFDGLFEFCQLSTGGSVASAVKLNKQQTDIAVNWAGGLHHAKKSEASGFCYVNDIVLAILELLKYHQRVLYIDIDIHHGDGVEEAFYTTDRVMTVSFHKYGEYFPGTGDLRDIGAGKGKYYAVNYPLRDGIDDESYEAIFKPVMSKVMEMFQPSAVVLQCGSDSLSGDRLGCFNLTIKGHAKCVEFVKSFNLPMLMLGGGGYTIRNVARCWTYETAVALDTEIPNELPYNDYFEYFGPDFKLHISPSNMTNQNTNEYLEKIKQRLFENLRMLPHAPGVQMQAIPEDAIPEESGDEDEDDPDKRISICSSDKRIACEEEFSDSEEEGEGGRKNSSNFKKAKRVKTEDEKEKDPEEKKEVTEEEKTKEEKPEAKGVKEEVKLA

[26] = tested on: MGC-803; assay: Antiproliferative activity against human MGC803 cells at 2 uM after 72 hrs by CCK-8 assay relative to control; format: functional; conditions: MGC-803, 72 h
[27] = tested on: A-375; assay: Antiproliferative activity against human A375 cells at 8 uM after 72 hrs by CCK-8 assay relative to control; format: functional; conditions: A-375, 72 h
[28] = tested on: MGC-803; assay: Antiproliferative activity against human MGC803 cells after 72 hrs by CCK-8 assay; format: functional, cell-based; conditions: for IC50: MGC-803, 72 h
[29] = tested on: SMMC-7721; assay: Induction of apoptosis in human SMMC7721 cells assessed as late apoptotic cells at 1 umol/L after 72 hrs by Alexa Fluor 488 Annexin/propidium iodide staining-based flow cytometric analysis (reference value: 0.29%); format: functional
[30] = tested on: SMMC-7721; assay: Cell cycle arrest in human SMMC7721 cells assessed as accumulation of cells at S phase at 0.125 umol/L after 72 hrs by propidium iodide staining-based flow cytometric analysis (reference value: 5.21%); format: functional
[31] = tested on: SMMC-7721; assay: Induction of apoptosis in human SMMC7721 cells assessed as viable cells at 4 umol/L after 72 hrs by Alexa Fluor 488 Annexin/propidium iodide staining-based flow cytometric analysis (reference value: 97.14%); format: functional; conditions: SMMC-7721, 72 h, read-out: Activity
[32] = tested on: HCT-116; assay: Antiproliferative activity against human HCT116 cells after 72 hrs by CCK-8 assay; format: functional, cell-based; conditions: for IC50: HCT-116, 72 h
[33] = tested on: SMMC-7721; assay: Induction of apoptosis in human SMMC7721 cells assessed as early apoptotic cells at 4 umol/L after 72 hrs by Alexa Fluor 488 Annexin/propidium iodide staining-based flow cytometric analysis (reference value: 0.09%); format: functional

| SMILES | Activity [1] | Activity [2] | IC50 [3] | Activity [4] | Activity [5] | IC50 [6] | Activity [7] | Activity [8] | Activity [9] | Activity [10] | Activity [11] | Activity [12] | viability at 0.125 µM [13] | inhibition at 2 µM [14] | IC50 [15] | IC50 [16] | Activity [17] | Activity [18] | viability at 1 µM [19] | inhibition at 2 µM [20] | other results |
| --- | --- | --- | --- | --- | --- | --- | --- | --- | --- | --- | --- | --- | --- | --- | --- | --- | --- | --- | --- | --- | --- |
| CCN(Cc1ccncc1)C(=S)SCc1ccc(C(=O)Nc2ccccc2N)cc1 | 9.19% | 11.92% | 1.21 µM | Dose-dependent effect | 7.45% | 0.9 µM | 11.22% | 41.87% | 2.75% | 13.18% | 12.93% | 21.11% | 73.1% | 67.2% | 1.94 µM | 1.04 µM | 18.06% | 71.44% | 54.7% | 63.5% | Activity [21]: 48.94%; Activity [22]: 1.27%; Activity [23]: 31.88%; IC50 [24]: 0.75 µM; IC50 [25]: 1.38 µM; inhibition at 2 µM [26]: 71.6%; inhibition at 8 µM [27]: 86.2%; IC50 [28]: 1.37 µM; Activity [29]: 14.06%; Activity [30]: 6.81%; viability at 4 µM [31]: 43%; IC50 [32]: 0.75 µM; Activity [33]: 23.81% |
| Nc1ccccc1NC(=O)c1ccc(CSC(=S)N2CCc3ccccc3C2)cc1 | 7.63% | 15.89% | 1.2 µM | Dose-dependent effect | 9.25% | 3.23 µM | 10.62% | 64.06% | 14.71% | 2.9% | 3.49% | 23.16% | 71.2% | 55.5% | 1.97 µM | 1.46 µM | 27.39% | 67.59% | 57.3% | 54.4% | Activity [21]: 28.31%; Activity [22]: 1.94%; Activity [23]: 26.7%; IC50 [24]: 0.98 µM; IC50 [25]: 2.57 µM; inhibition at 2 µM [26]: 80.9%; inhibition at 8 µM [27]: 86.7%; IC50 [28]: 0.94 µM; Activity [29]: 12.44%; Activity [30]: 5.7%; viability at 4 µM [31]: 46%; IC50 [32]: 1.56 µM; Activity [33]: 25.36% |
| Nc1ccccc1NC(=O)c1ccc(CSC(=S)N2CCN(c3ccncc3)CC2)cc1 | 2.76% | 12.01% | 1.34 µM | Dose-dependent effect | 7.04% | 0.47 µM | 12.55% | 85.19% | 3.66% | 5.01% | 11.27% | 13.68% | 72.5% | 85.7% | 1.27 µM | 0.79 µM | 17.23% | 79.27% | 66.7% | 77% | Activity [3]: Dose-dependent effect; Activity [15]: Dose-dependent effect; Activity [16]: Dose-dependent effect; Activity [21]: 12.05%; Activity [22]: 3.17%; Activity [23]: 52.78%; Activity [24]: Dose-dependent effect; IC50 [24]: 2.49 µM; IC50 [25]: 0.48 µM; inhibition at 2 µM [26]: 64.8%; inhibition at 8 µM [27]: 90.7%; Activity [28]: Dose-dependent effect; IC50 [28]: 1.58 µM; Activity [29]: 11.06%; Activity [30]: 7.28%; viability at 4 µM [31]: 24.3%; Activity [32]: Dose-dependent effect; IC50 [32]: 0.54 µM; Activity [33]: 19.79% |

— ChEMBL document CHEMBL4251578, “Design, synthesis and biological evaluation of novel 2-aminobenzamides containing dithiocarbamate moiety as histone deacetylase inhibitors and potent antitumor agents” (Eur J Med Chem, 2018)
